Our source for the IC50 and MIC values is patent publication US20090048203A1, “SUBSTITUTED ADENINES AND THE USES THEREOF” (priority 2004, published 2009).

The target of one test is S. pneumoniae LigA (Streptococcus pneumoniae serotype 4, UniProt Q97QT2). As to the kind of experiment: DNA ligase inhibition, FRET detection assay. The test is classed as biochemical. To be noted: ten compound concentrations; read-out: IC50 (μM) against S. pneumoniae LigA. The protocol:
Compounds were tested for inhibition of DNA ligase using a Fluorescence Resonance Energy Transfer (FRET) detection assay as previously described (Chen et al. 2002. Analytical Biochemistry 309: 232-240; Benson et al. 2004. Analytical Biochemistry 324:298-300). Assays were performed in 384-well polystyrene flat-bottom black plates in 30 μl reactions containing 3 μl compound dissolved in dimethylsulfoxide, 20 μl 1.5× Enzyme Working Solution (25% glycerol, 45 mM potassium chloride, 45 mM ammonium sulfate, 15 mM dithiothreitol, 1.5 mM ethylenediaminetetraacetic acid (EDTA), 0.003% Brij 35, 75 mM MOPS pH 7.5, 150 nM bovine serum albumin, 1.5 μM NAD^+, 60 nM DNA substrate, 0.375 nM enzyme in water) and 7 μl […] magnesium chlorine solution (96 mM magnesium chloride, 20% glycerol in water) to initiate the reaction. The DNA substrate is similar to that described in Benson et al. (2004. Analytical Biochemistry 324:298-300). The assay reactions were incubated at room temperature for approximately 20 minutes before being terminated by the addition of 30 μl Quench reagent (8 M Urea, 1 M Trizma base, 20 mM EDTA in water). Plates were read in a Tecan Ultra plate reader at two separate wavelengths—Read 1: excitation 485, emission 535, Read 2: excitation 485, emission 595. Data is initially expressed as a ratio of the 595/535 emission values and percent inhibition values were calculated using […] dimethylsulfoxide (no compound) as the 0% inhibition and EDTA-containing (50 mM) reactions as 100% inhibition controls. Compound potency was based on IC50 measurements determined from reactions performed in the presence of ten different compound concentrations.

Another test concerns S. pneumoniae. Nature of the test: Bacterial susceptibility testing, microbroth dilution (MIC). It is filed as cell-based. The following applies: Streptococcus pneumoniae; lowest drug concentration able to reduce growth by 80% or more; read-out: MIC (μg/ml) against S. pneumoniae. As to the method:
Compounds were tested for antimicrobial activity by susceptibility testing using microbroth dilution methods recommended by NCCLS. Compounds were dissolved in dimethylsulfoxide and tested in 10 doubling dilutions in the susceptibility assays such that the final dimethylsulfoxide concentration in the assay was 2% (v/v). The organisms used in the assay were grown overnight on appropriate agar media and then suspended in the NCCLS-recommended liquid susceptibility-testing media. The turbidity of each suspension was adjusted to be equal to a 0.5 McFarland standard, a further 1-in-10 dilution was made into the same liquid medium to prepare the final organism suspension, and 100 μL of this suspension was added to each well of a microtiter plate containing compound dissolved in 2 μL of dimethylsulfoxide. Plates were incubated under appropriate conditions of atmosphere and temperature and for times according to NCCLS standard methods prior to being read. The Minimum Inhibitory Concentration (MIC) was determined as the lowest drug concentration able to reduce growth by 80% or more.
(In general: In broth dilution the organism is exposed to a series of concentrations in liquid medium.)

≈ marks a conversion by molar mass, not a printed value.

By IC50 is commonly meant the point on the concentration scale where inhibition reaches its midpoint.

Sequence of S. pneumoniae LigA (Q97QT2 whole entry): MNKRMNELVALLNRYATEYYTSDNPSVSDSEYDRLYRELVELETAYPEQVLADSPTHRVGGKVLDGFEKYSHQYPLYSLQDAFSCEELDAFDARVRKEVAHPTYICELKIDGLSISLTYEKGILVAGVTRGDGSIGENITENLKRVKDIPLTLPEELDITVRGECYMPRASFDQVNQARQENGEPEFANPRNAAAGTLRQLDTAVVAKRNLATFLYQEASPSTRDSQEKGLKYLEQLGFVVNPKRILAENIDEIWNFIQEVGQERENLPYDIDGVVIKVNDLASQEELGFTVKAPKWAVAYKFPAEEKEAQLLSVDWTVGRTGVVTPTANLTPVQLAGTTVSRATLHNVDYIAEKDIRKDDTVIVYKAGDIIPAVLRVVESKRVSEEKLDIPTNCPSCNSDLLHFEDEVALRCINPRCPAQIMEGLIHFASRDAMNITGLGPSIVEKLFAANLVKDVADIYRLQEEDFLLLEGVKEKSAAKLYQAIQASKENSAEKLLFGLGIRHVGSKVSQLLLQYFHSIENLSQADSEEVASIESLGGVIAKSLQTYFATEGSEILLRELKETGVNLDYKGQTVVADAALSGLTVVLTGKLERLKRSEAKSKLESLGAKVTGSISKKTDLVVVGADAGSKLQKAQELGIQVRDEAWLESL

Take `Nc1nc(OC2CCCC2)nc2c1ncn2C1OCCC1N` (stereo not shown) [Example 128, 9-(3-aminotetrahydrofuran-2-yl)-2-(cyclopentyloxy)-9H-purin-6-amine]: the IC50 at S. pneumoniae LigA came out at 0.7 µM. In the case of `COc1cccc(CO[C@H]2[C@@H](O)[C@H](n3cnc4c(N)nc(OC5CCCC5)nc43)O[C@@H]2C)c1` [Example 356], in the test on S. pneumoniae, the MIC is 4 µg/mL (≈ 8.78 µM).

Turning to `Nc1nc(OCc2ccccc2)nc2c1ncn2C1CCCO1` (stereo not shown) [Example 25, 2-(benzyloxy)-9-(tetrahydrofuran-2-yl)-9H-purin-6-amine], at S. pneumoniae LigA, the IC50 was determined as 4 µM. As for `Nc1nc(OC2CCCC2)nc2c1ncn2[C@@H]1O[C@H](COCCO)[C@@H](O)[C@H]1O` [Example 129, 2-(cyclopentyloxy)-9-[5-O-(2-hydroxyethyl)-β-D-ribofuranosyl]-9H-purin-6-amine], the MIC in the test with S. pneumoniae was 8 µg/mL (≈ 20.2 µM).

Turning to `Nc1nc(SCc2ccco2)nc2c1ncn2C1CCCO1` (stereo not shown) [Example 6, 2-[(2-furylmethyl)thio]-9-(tetrahydrofuran-2-yl)-9H-purin-6-amine], the IC50 at S. pneumoniae LigA worked out at 1.8 µM. Turning to `Nc1nc(OC2CCCCC2)nc2c1ncn2C1CCCO1` (stereo not shown) [Example 27, 2-(cyclohexyloxy)-9-(tetrahydrofuran-2-yl)-9H-purin-6-amine], the MIC with S. pneumoniae was determined as 8 µg/mL (≈ 26.4 µM).

In the case of `C=C[C@H]1O[C@@H](n2cnc3c(N)nc(OC4CCCC4)nc32)[C@H](O)[C@@H]1O` [Example 259, 2-(cyclopentyloxy)-9-(5,6-dideoxy-β-D-ribo-hex-5-enofuranosyl)-9H-purin-6-amine], the IC50 on S. pneumoniae LigA was found to be 0.5 µM.

For `Nc1nc(OC2CCC3CCCCC3C2)nc2c1ncn2C1CCCO1` (stereo not shown) [Example 62, 2-(decahydronaphthalen-2-yloxy)-9-(tetrahydrofuran-2-yl)-9H-purin-6-amine], the MIC in the test on S. pneumoniae was 4 µg/mL (≈ 11.2 µM). Take `Nc1nc(OCC2CCCC2)nc2c1ncn2[C@@H]1O[C@H](CO)[C@@H](O)[C@H]1O` [Example 172, 2-(Cyclopentyl)methoxy-9-β-D-ribofuranosyl-9H-purine-6-amine]: at S. pneumoniae LigA, the IC50 is 0.145 µM. The MIC in the test on S. pneumoniae worked out at 2 µg/mL (≈ 5.47 µM).
